Measurements: US9676760B2, “Fused heterocyclic compounds as ion channel modulators” (Gilead Sciences, Inc., priority 2011, dated 2017)

The molecules below were run against wild-type human cardiac sodium channel, hNav1.5 (Homo sapiens, UniProt Q14524) (assay: Late INa screening assay (QPatch whole cell patch clamp, HEK293)). Details: HEK293, percent block of late INa; compound at 1 μM; 10 μM Tefluthrin; read-out: Late INa 1 μM.
wild-type human cardiac sodium channel, hNav1.5, sequence (Q14524 whole entry): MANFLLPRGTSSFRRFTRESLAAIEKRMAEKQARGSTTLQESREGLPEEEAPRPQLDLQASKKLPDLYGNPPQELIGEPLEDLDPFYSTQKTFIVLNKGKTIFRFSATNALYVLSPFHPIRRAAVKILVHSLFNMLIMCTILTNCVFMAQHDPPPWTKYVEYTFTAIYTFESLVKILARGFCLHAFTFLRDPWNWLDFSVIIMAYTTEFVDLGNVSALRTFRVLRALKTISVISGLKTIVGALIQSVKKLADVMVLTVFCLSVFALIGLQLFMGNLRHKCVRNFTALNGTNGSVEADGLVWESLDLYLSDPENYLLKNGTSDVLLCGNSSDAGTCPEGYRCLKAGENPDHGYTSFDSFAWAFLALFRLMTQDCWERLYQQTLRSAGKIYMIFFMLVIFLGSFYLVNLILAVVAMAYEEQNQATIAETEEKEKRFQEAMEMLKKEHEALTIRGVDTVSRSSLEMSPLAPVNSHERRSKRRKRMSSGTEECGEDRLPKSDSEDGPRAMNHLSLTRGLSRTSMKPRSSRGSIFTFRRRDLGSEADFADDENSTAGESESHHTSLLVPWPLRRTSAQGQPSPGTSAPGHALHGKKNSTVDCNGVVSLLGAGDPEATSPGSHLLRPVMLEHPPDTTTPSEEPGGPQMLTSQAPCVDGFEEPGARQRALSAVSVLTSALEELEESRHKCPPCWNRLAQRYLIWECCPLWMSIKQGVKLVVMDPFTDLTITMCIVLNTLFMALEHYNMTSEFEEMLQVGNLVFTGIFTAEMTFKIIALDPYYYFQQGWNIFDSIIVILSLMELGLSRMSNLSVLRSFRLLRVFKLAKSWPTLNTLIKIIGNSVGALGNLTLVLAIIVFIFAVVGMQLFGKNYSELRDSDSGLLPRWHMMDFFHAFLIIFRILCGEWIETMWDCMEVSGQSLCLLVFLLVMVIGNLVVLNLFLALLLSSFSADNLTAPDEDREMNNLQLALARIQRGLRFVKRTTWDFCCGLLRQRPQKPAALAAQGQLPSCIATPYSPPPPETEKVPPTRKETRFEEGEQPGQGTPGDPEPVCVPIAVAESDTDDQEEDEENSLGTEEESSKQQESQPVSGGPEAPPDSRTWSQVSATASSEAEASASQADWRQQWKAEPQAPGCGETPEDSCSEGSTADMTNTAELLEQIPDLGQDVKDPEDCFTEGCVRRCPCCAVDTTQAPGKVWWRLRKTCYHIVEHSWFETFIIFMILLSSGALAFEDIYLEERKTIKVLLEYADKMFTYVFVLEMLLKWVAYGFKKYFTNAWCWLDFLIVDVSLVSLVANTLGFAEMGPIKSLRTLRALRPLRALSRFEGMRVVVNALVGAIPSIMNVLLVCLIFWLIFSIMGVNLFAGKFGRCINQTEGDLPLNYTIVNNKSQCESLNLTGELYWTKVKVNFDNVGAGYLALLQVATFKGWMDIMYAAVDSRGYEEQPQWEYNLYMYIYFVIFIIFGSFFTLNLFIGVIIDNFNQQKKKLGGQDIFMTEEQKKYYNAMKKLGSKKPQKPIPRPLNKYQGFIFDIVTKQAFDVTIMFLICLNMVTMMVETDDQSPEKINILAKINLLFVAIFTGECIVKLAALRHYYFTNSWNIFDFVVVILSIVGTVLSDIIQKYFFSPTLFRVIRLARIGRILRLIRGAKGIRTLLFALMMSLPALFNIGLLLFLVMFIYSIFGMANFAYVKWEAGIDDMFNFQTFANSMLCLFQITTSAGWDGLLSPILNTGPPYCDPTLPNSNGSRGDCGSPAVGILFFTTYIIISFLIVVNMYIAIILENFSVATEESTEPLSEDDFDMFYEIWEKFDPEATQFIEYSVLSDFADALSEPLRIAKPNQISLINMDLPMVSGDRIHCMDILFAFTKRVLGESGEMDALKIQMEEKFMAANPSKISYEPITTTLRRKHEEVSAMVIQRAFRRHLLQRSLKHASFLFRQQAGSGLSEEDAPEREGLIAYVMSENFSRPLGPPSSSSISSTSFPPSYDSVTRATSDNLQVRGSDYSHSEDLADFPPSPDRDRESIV
Assay type: cell-based
Protocol: The late sodium current (Late INa) and peak sodium current (Peak INa) assays are performed on an automated electrophysiology platform, QPatch 16× (Sophion Bioscience, Copenhagen, Denmark), which uses the whole cell patch clamp technique to measure currents through the cell membrane of up to 16 cells at a time. The assay uses an HEK293 (human embryonic kidney) cell line heterologously expressing the wild-type human cardiac sodium channel, hNav1.5, purchased from Millipore (Billerica, Mass.). No beta subunits were coexpressed with the Na channel alpha subunit. Cells are maintained with standard tissue culture procedures and stable channel expression is maintained with 400 μg/mL Geneticin in the culture medium. Cells isolated for use on QPatch are incubated for 5 minutes in Detachin 1×(Genlantis, San Diego, USA) at 37° C. to ensure that 80-90% of the cells are single and not part of a cell cluster. Experiments are carried out at 23-25° C.
For both the Late INa and Peak INa assays, series resistance compensation is set to 100% and series resistance and whole-cell compensation are performed automatically. Currents are digitized at 25 kHz and low-pass filtered at 12 kHz and 10 kHz for the late and peak INa assays, respectively. Currents through open sodium channels are automatically recorded and stored in the Sophion Bioscience Oracle database (Sophion Bioscience, Copenhagen, Denmark). Analysis is performed using QPatch Assay and database software and data are compiled in Excel.
Compound stocks are routinely made by the Gilead Sample Bank in plastic vials to 10 mM in dimethyl sulfoxide (DMSO). In some cases, when compounds are not soluble in DMSO, they are made in 100% ethanol. Stocks are sonicated as necessary. The extracellular solution for screening Late INa is composed of: 140 mM NaCl, 4 mM KCl, 1.8 mM CaCl2, 0.75 mM MgCl2 and 5 mM HEPES with pH adjusted to 7.4 using NaOH. The intracellular solution used to perfuse the inside of the cells for both the Late INa and Peak INa assays contains: 120 mM CsF, 20 mM CsCl, 5 mM EGTA, 5 mM HEPES and pH adjusted to 7.4 with CsOH. Compounds are diluted in extracellular solution to 1 μM in glass vials and then transferred to glass well plates before robotic addition to the cells. The 0 mM Na extracellular solution (0Na-ECF) used at the end of each experiment for the Late INa and Peak INa assays to measure baseline current contains: 140 mM N-methyl-D-glucamine; 4 mM KCl; 1.8 mM CaCl2; 0.75 mM MgCl2; 5 mM HEPES and pH was adjusted to 7.4 with HCl.
For the Late INa assay, sodium channels are activated every 10 seconds (0.1 Hz) by depolarizing the cell membrane to −20 mV for 250 milliseconds (ms) from a holding potential of −120 mV. In response to a −20 mV voltage step, typical hNav1.5 sodium currents activate rapidly to a peak negative current and then inactivate nearly completely within 3-4 ms.
Compounds were tested to determine their activity in blocking the late sodium current. Late INa was generated by adding 10 μM Tefluthrin (pyrethroid) to the extracellular solution while recording Na currents. […] ATX-II and tefluthrin occupy distinct, non-overlapping binding sites and modify Na^+ channel function differently to increase late INa. […] After establishing the whole cell recording configuration, late INa activator is added to each well 4 times over a 16-17 minute period so that the late component of the Na current reaches a stable value.
Results are reported as percent block of late INa.
`O=C1c2cc(-c3ccc(OC(F)(F)F)cc3)ccc2OCCN1Cn1ccc(C(F)(F)F)n1` [II-148, 7-(4-(trifluoromethoxy)phenyl)-4-((3-(trifluoromethyl)-1H-pyrazol-1-yl)methyl)-3,4-dihydrobenzo[f][1,4]oxazepin-5(2H)-one] gave an inhibition at 1 µM of 17%.
`O=C1c2cc(-c3ccc(CC(F)(F)F)cc3)ccc2OCCN1Cc1ncccn1` [II-150, 4-(pyrimidin-2-ylmethyl)-7-(4-(2,2,2-trifluoroethyl)phenyl)-3,4-dihydrobenzo[f][1,4]oxazepin-5(2H)-one] showed an inhibition at 1 µM of 27%.
Work on `O=C1c2cc(-c3ccc(OC(F)(F)F)cc3)ccc2OCCN1Cc1ccn(C2CCCC2)n1` [II-152, 4-((1-cyclopentyl-1H-pyrazol-3-yl)methyl)-7-(4-(trifluoromethoxy)phenyl)-3,4-dihydrobenzo[f][1,4]oxazepin-5(2H)-one] yielded an inhibition at 1 µM of 23%.
`Cn1cnc(CN2CCOc3ccc(-c4ccc(OC(F)(F)F)cc4)cc3C2=O)c1` [II-154, 4-((1-methyl-1H-imidazol-4-yl)methyl)-7-(4-(trifluoromethoxy)phenyl)-3,4-dihydrobenzo[f][1,4]oxazepin-5(2H)-one] gave an inhibition at 1 µM of 25%.
For `O=C1c2cc(-c3ccc(OC(F)F)cc3)ccc2OCCN1Cc1ccccn1` [II-159, 7-(4-(difluoromethoxy)phenyl)-4-(pyridin-2-ylmethyl)-3,4-dihydrobenzo[f][1,4]oxazepin-5(2H)-one], the inhibition at 1 µM was 28%.
For `Cn1cc(CN2CCOc3ccc(-c4ccc(OC(F)(F)F)cc4)cc3C2=O)cn1` [II-160, 4-((1-methyl-1H-pyrazol-4-yl)methyl)-7-(4-(trifluoromethoxy)phenyl)-3,4-dihydrobenzo[f][1,4]oxazepin-5(2H)-one], the inhibition at 1 µM was 48%.
For `O=C1c2cc(-c3ccc(F)c(F)c3F)ccc2OCCN1Cc1ncccn1` [II-162, 4-(pyrimidin-2-ylmethyl)-7-(2,3,4-trifluorophenyl)-3,4-dihydrobenzo[f][1,4]oxazepin-5(2H)-one], the inhibition at 1 µM was 20%.
With `O=C1c2cc(-c3ccc(F)c(F)c3)ccc2OCCN1Cc1ncccn1` [II-163, 7-(3,4-difluorophenyl)-4-(pyrimidin-2-ylmethyl)-3,4-dihydrobenzo[f][1,4]oxazepin-5 (2H)-one] the inhibition at 1 µM was 28%.
With `O=C1c2cc(-c3ccc(OC(F)(F)F)cc3)ccc2OCCN1Cc1ncccc1F` [II-164, 4-((3-fluoropyridin-2-yl)methyl)-7-(4-(trifluoromethoxy)phenyl)-3,4-dihydrobenzo[f][1,4]oxazepin-5(2H)-one] the inhibition at 1 µM was 75%.
In the case of `O=C1c2cc(-c3ccc(OS(=O)(=O)C(F)(F)F)cc3)ccc2OCCN1Cc1ncccn1` [II-171, 4-(5-oxo-4-(pyrimidin-2-ylmethyl)-2,3,4,5-tetrahydrobenzo[f][1,4]oxazepin-7-yl)phenyl trifluoromethanesulfonate], the inhibition at 1 µM is reported as 24%.
With `Cc1cnc(CN2CCOc3ccc(-c4ccc(OC(F)(F)F)cc4)cc3C2=O)cn1` [II-172, 4-((5-methylpyrazin-2-yl)methyl)-7-(4-(trifluoromethoxy)phenyl)-3,4-dihydrobenzo[f][1,4]oxazepin-5(2H)-one] the inhibition at 1 µM was 33%.
Work on `[2H]C1([2H])Oc2ccc(-c3ccc(OC(F)(F)F)cc3)cc2C(=O)N(Cc2ncccn2)C1([2H])[2H]` [II-174, 2,2,3,3-tetradeutero-4-(pyrimidin-2-ylmethyl)-7-(4-(trifluoromethoxy)phenyl)-3,4-dihydrobenzo[f][1,4]oxazepin-5(2H)-one] yielded an inhibition at 1 µM of 48%.
`O=C1c2cc(-c3ccc(OC(F)(F)F)cc3)ccc2OCCN1CCNS(=O)(=O)c1ccccc1` [II-177, N-(2-(5-oxo-7-(4-(trifluoromethoxy)phenyl)-2,3-dihydrobenzo[f][1,4]oxazepin-4(5H)-yl)ethyl)benzenesulfonamide] showed an inhibition at 1 µM of 22%.
`CCS(=O)(=O)NCCN1CCOc2ccc(-c3ccc(OC(F)(F)F)cc3)cc2C1=O` [II-178, N-(2-(5-oxo-7-(4-(trifluoromethoxy)phenyl)-2,3-dihydrobenzo[f][1,4]oxazepin-4(5H)-yl)ethyl)ethanesulfonamide] gave an inhibition at 1 µM of 19%.
`O=C1c2cc(-c3ccc(OC(F)(F)F)cc3)ccc2OCCN1CCNS(=O)(=O)C1CC1` [II-179, N-(2-(5-oxo-7-(4-(trifluoromethoxy)phenyl)-2,3-dihydrobenzo[f][1,4]oxazepin-4(5H)-yl)ethyl)cyclopropanesulfonamide] showed an inhibition at 1 µM of 21%.
Work on `O=C1c2cc(-c3ccc(OC(F)(F)F)cc3)ccc2OCCN1CCCS(=O)(=O)NC1CC1` [II-190, N-cyclopropyl-3-(5-oxo-7-(4-(trifluoromethoxy)phenyl)-2,3-dihydrobenzo[f][1,4]oxazepin-4(5H)-yl)propane-1-sulfonamide] yielded an inhibition at 1 µM of 18%.
In the case of `O=C1c2cc(-c3ccc(OC(F)(F)F)cc3)ccc2OCCN1CCCS(=O)(=O)N1CCC1` [II-191, 4-(3-(azetidin-1-ylsulfonyl)propyl)-7-(4-(trifluoromethoxy)phenyl)-3,4-dihydrobenzo[f][1,4]oxazepin-5(2H)-one], the inhibition at 1 µM is reported as 25%.
With `O=C(NCCN1CCOc2ccc(-c3ccc(OC(F)(F)F)cc3)cc2C1=O)c1ncccn1` [II-192, N-(2-(5-oxo-7-(4-(trifluoromethoxy)phenyl)-2,3-dihydrobenzo[f][1,4]oxazepin-4(5H)-yl)ethyl)pyrimidine-2-carboxamide] the inhibition at 1 µM was 15%.
`O=C1c2cc(-c3ccc(Oc4ccc(F)cc4)cc3)ccc2OCCN1Cc1ncccn1` [II-193, 7-(4-(4-fluorophenoxy)phenyl)-4-(pyrimidin-2-ylmethyl)-3,4-dihydrobenzo[f][1,4]oxazepin-5(2H)-one] gave an inhibition at 1 µM of 70%.
`O=C1c2cc(-c3ccc(Oc4ccccc4)cc3)ccc2OCCN1Cc1ncccn1` [II-194, 7-(4-phenoxyphenyl)-4-(pyrimidin-2-ylmethyl)-3,4-dihydrobenzo[f][1,4]oxazepin-5(2H)-one] gave an inhibition at 1 µM of 63%.
Work on `O=C1c2cc(-c3cccc(Oc4ccccc4)c3)ccc2OCCN1Cc1ncccn1` [II-195, 7-(3-phenoxyphenyl)-4-(pyrimidin-2-ylmethyl)-3,4-dihydrobenzo[f][1,4]oxazepin-5(2H)-one] yielded an inhibition at 1 µM of 66%.
Work on `O=C(c1ccccc1)N1CCOc2ccc(-c3ccc(OC(F)(F)F)cc3)cc2C1` [III-4, phenyl(7-(4-(trifluoromethoxy)phenyl)-2,3-dihydrobenzo[f][1,4]oxazepin-4(5H)-yl)methanone] yielded an inhibition at 1 µM of 35%.
`CC1(C(=O)N2CCOc3ccc(-c4ccc(OC(F)(F)F)cc4)cc3C2)CC1` [III-10, (1-methylcyclopropyl)(7-(4-(trifluoromethoxy)phenyl)-2,3-dihydrobenzo[f][1,4]oxazepin-4(5H)-yl)methanone] gave an inhibition at 1 µM of 29%.
`O=C(C1CC(F)(F)C1)N1CCOc2ccc(-c3ccc(OC(F)(F)F)cc3)cc2C1` [III-11, (3,3-difluorocyclobutyl)(7-(4-(trifluoromethoxy)phenyl)-2,3-dihydrobenzo[f][1,4]oxazepin-4(5H)-yl)methanone] was tested, and the inhibition at 1 µM was 20%.
`O=C(c1cnccn1)N1CCOc2ccc(-c3ccc(OC(F)(F)F)cc3)cc2C1` [III-23, pyrazin-2-yl(7-(4-(trifluoromethoxy)phenyl)-2,3-dihydrobenzo[f][1,4]oxazepin-4(5H)-yl)methanone] gave an inhibition at 1 µM of 26%.
Molecule `O=C(c1cccnn1)N1CCOc2ccc(-c3ccc(OC(F)(F)F)cc3)cc2C1` [III-24, pyridazin-3-yl(7-(4-(trifluoromethoxy)phenyl)-2,3-dihydrobenzo[f][1,4]oxazepin-4(5H)-yl)methanone] has an inhibition at 1 µM of 17%.
In the case of `O=C(Cc1ncccn1)N1CCOc2ccc(-c3ccc(C(F)(F)F)cc3)cc2C1` [III-30, 2-(pyrimidin-2-yl)-1-(7-(4-(trifluoromethyl)phenyl)-2,3-dihydrobenzo[f][1,4]oxazepin-4(5H)-yl)ethanone], the inhibition at 1 µM is reported as 16%.
`Cn1cncc1C(=O)N1CCOc2ccc(-c3ccc(C(F)(F)F)cc3)cc2C1` [III-32, (1-methyl-1H-imidazol-5-yl)(7-(4-(trifluoromethyl)phenyl)-2,3-dihydrobenzo[f][1,4]oxazepin-4(5H)-yl)methanone] was tested, and the inhibition at 1 µM was 22%.
